Where two headings read alike, the source gives them in different places.
Experiments:
[1] = tested on: Bronchoconstriction in Guinea Pigs (induced with acetylcholine); test: Effect on bronchoconstriction in guinea pigs (via inhalation administration), Konzett method; format: in vivo; conditions: Cavia porcellus, iv; guinea pig, intratracheal administration 10 μL g/head, 24 hours after administration, acetylcholine 4 μg/kg i.v., versus control group; read-out: Percent of inhibition of bronchoconstriction (%)
Experimental: Effect on Bronchoconstriction in Guinea Pigs (Via Inhalation Administration)
The test was performed according to the method of Konzett et al. (Arch. Exp. Path Pharmak., 1940, 195, 71-74). Male Hartley guinea pigs (350 to 600 g) were anesthetized with urethane (1.8 g/kg, i.p.), and then a cannula for drug administration was inserted into each left jugular vein. After the immobilization with decamethonium (2 mg/kg, i.v.), a tracheal cannula was inserted, and controlled respiration was attained by a respirator (Harvard). Bronchoconstriction was measured as changes of airway pressure with a pressure transducer (Nihon Kohden Corp.). Each test compound was administered (10 μL g/head) from dissected trachea by using a device for intratracheal administration of liquid for guinea pigs (Penn Century), and after suture, the animals were returned to usual breeding. After 24 hours, acetylcholine (4 μg/kg, i.v.) was administered to induce bronchoconstriction, and inhibitory activity on bronchoconstriction was calculated as percent inhibition comparing to the change of airway pressure in control group was obtained.

muscarinic M3 receptor = target: T1, muscarinic M3 receptor (Cavia porcellus, UniProt H0W1Z3); test: Muscarinic M3 antagonistic action in isolated guinea pig trachea (carbachol-induced contraction, Schild method); format: cell-based; conditions: compound applied 15 minutes before carbachol
T1 construct: trachea was excised, and cut at every two tracheal cartilages to prepare tissue specimens; from tissue; host or cells: isolated guinea pig trachea (male Hartley)
Experimental: Muscarinic M3 Antagonistic Action in Isolated Guinea Pig Trachea
Male Hartley guinea pigs (350 to 600 g) were sacrificed by bleeding, and trachea was excised, and cut at every two tracheal cartilages to prepare tissue specimens. Each tissue specimen was kept warm at 37° C., suspended with a resting tension of 1 g in a 5-mL Magnus bath filled with a Krebs carbonate buffer containing indomethacin (1 μM) bubbled with 95% O2/5% CO2, and left for 60 minutes as a stabilization period. […] After the measurement, the tissue specimen was immediately washed, and left for 60 minutes as a stabilization period before the next contraction reaction, and the tissue specimen of which EC50 for the carbachol-induced contraction reaction was stabilized was considered as a control. Each test compound was applied 15 minutes before the addition of carbachol. The affinity (pA2) of the test compound was obtained by the Schild method (Arunlakshana, O. and Schild, H. O., Brit. J. Pharmacol., 1959, 14, 48-58).

muscarinic M2 receptor = target: T2, muscarinic M2 receptor (Cavia porcellus, UniProt H0VRN8); test: Muscarinic M2 antagonistic action in isolated guinea pig left atrium (carbachol-induced relaxation, Schild method); format: cell-based; conditions: compound applied 30 minutes before carbachol
T2 construct: left atria were excised to prepare tissue specimens; from tissue; host or cells: isolated guinea pig left atrium (male Hartley)
T2 sequence (H0VRN8 1-466): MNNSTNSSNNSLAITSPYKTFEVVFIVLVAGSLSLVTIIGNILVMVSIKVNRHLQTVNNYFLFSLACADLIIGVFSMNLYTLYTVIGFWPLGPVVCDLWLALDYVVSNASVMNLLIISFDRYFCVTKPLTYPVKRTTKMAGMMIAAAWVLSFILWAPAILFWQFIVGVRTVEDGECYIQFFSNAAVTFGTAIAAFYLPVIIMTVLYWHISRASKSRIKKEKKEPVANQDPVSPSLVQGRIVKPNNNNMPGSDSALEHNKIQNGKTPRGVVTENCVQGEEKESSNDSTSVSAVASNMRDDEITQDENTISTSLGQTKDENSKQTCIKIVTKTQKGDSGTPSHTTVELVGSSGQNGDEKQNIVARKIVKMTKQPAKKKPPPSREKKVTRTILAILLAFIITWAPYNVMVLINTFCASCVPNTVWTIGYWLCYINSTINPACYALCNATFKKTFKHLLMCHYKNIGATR
Experimental: Muscarinic M2 Antagonistic Action in Isolated Guinea Pig Left Atrium […] Each tissue specimen was kept warm at 37° C., suspended with a resting tension of 0.5 g in a 5-mL Magnus bath filled with a Krebs carbonate buffer bubbled with 95% O2/5% CO2. Then, contraction evoked by field electrical stimulation (4 Hz, 2 msec, 1.5×threshold potential) was measured. After a stabilization period of 60 minutes, carbachol-induced relaxation was isometrically measured and recorded by the cumulative method from 10^−8 M with an interval of 90 seconds for one concentration in an equal ratio of 3. After the measurement, the tissue specimen was immediately washed, and left for 45 minutes as a stabilization period before the next observation. The tissue specimen of which EC50 for the carbachol-induced relaxation was stabilized was considered as a control. Each test compound was applied 30 minutes before the addition of carbachol. The affinity (pA2) of the test compound was obtained in the same manner as in the case of the trachea.

[2] = pA2 Trachea M3, isolated guinea pig trachea
[3] = pA2 Left atrium M2, isolated guinea pig left atrium

T1 sequence (H0W1Z3 1-590): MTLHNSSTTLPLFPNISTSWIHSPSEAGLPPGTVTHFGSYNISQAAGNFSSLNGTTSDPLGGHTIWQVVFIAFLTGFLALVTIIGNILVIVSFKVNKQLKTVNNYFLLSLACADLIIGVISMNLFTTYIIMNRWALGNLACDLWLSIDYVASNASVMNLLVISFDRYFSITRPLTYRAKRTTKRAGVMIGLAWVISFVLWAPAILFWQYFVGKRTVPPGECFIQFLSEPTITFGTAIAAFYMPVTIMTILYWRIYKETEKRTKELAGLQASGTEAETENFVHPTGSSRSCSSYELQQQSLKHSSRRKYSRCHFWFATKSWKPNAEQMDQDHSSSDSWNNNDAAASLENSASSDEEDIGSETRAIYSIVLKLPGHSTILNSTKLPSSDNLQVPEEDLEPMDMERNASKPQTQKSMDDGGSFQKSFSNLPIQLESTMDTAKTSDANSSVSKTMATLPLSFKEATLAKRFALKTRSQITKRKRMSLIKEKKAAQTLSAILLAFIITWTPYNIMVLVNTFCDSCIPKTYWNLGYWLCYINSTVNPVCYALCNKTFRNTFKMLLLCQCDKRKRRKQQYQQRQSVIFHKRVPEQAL

Row | Kb (muscarinic M3 receptor; isolated guinea pig trachea, read-out: pA2 Trachea M3 (converted)) | Kb (muscarinic M2 receptor; isolated guinea pig left atrium, read-out: pA2 Left atrium M2 (converted)) | Structure (SMILES) | inhibition in vivo at 0.01 mg [1] | Kb (muscarinic M3 receptor; [2]) | Kb (muscarinic M2 receptor; [3])
1 | – | – | Cc1n([C@@H]2CC[C@H](C(C(N)=O)(c3ccccc3)c3ccccc3)C2)cc[n+]1Cc1ccccc1 [Example 91, 3-((1R,3S)-3-(Carbamoyl(diphenyl)methyl)cyclopentyl)-1-benzyl-2-methyl-3H-imidazol-1-ium bromide] | 100% | 0.1 nM | 3.98 nM
2 | – | – | COCC[n+]1ccn([C@H]2CC[C@@H](C(C(N)=O)(c3ccccc3)c3ccccc3)C2)c1C (relative stereo) [Example 26, 3-(cis-3-(Carbamoyl(diphenyl)methyl)cyclopentyl)-1-(2-methoxy-ethyl)-2-methyl-3H-imidazol-1-ium bromide] | 70% | 0.2 nM | 12.6 nM
3 | – | – | C[n+]1ccn([C@H]2CC[C@H](C(C(N)=O)(c3ccccc3)c3ccccc3)C2)c1 (relative stereo) [Example 59, 3-(trans-3-(Carbamoyl(diphenyl)methyl)cyclopentyl)-1-methyl-3H-imidazol-1-ium iodide] | 90% | 0.794 nM | 20 nM
4 | – | – | Cc1n([C@H]2CC[C@@H](C(C(N)=O)(c3ccccc3)c3ccccc3)C2)cc[n+]1CC1CCC1 (relative stereo) [Example 40, 3-(cis-3-(Carbamoyl(diphenyl)methyl)cyclopentyl)-1-cyclobutylmethyl-2-methyl-3H-imidazol-1-ium bromide] | 100% | 0.398 nM | 7.94 nM
5 | 0.0794 nM | 5.01 nM | Cc1n([C@H]2CC[C@@H](C(C(N)=O)(c3ccccc3)c3ccccc3)C2)cc[n+]1Cc1ccccc1 [Example 83, 3-((1S,3R)-3-(Carbamoyl(diphenyl)methyl)cyclopentyl)-1-benzyl-2-methyl-3H-imidazol-1-ium bromide] | 100% | – | –

Reference: patent publication US20100152261A1 (MITSUBISHI TANABE PHARMA CORPORATION, priority 2005, published 2010)
